According to ChEMBL document CHEMBL5154923 (J Med Chem, 2022):
Activity calls are given as the source filed them. No cut-off for these calls is given here.

What was measured:
[1] = target: T1, Serine/threonine-protein kinase 17A (Homo sapiens) (UniProt Q9UEE5); assay: Inhibition of human N-terminal His-tagged/ TEV cleavage fused DRAK1 (39 to 369 residues) expressed in Escherichia coli assessed as change in enthalpy by isothermal titration calorimetry
T1 sequence (whole entry): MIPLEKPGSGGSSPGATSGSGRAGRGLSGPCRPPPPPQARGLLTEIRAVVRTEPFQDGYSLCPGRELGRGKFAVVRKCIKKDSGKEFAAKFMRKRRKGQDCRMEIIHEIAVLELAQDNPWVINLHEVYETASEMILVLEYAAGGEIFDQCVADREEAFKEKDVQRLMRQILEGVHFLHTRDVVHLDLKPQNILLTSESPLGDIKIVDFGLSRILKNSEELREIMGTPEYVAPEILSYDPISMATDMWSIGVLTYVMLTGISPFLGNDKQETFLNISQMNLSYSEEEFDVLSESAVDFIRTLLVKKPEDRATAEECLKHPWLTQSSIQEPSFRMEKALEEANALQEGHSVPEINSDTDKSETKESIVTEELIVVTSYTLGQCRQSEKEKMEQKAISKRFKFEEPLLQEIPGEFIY

[2] = target: T1, Serine/threonine-protein kinase 17A (Homo sapiens); assay: Binding affinity to human N-terminal His-tagged/ TEV cleavage fused DRAK1 (39 to 369 residues) expressed in Escherichia coli assessed as change in melting temperature at 10 uM by SYPRO orange dye based DSF assay
[3] = target: T2, Casein kinase II subunit alpha (Homo sapiens, UniProt P68400); assay: Binding affinity to wild type full length human CK2alpha1 (1 to 391 residues) expressed in mammalian expression system assessed as change in melting temperature at 10 uM by SYPRO orange dye based DSF assay
Target sequence in this assay (P68400 whole entry, looked up, the tested form may be a part): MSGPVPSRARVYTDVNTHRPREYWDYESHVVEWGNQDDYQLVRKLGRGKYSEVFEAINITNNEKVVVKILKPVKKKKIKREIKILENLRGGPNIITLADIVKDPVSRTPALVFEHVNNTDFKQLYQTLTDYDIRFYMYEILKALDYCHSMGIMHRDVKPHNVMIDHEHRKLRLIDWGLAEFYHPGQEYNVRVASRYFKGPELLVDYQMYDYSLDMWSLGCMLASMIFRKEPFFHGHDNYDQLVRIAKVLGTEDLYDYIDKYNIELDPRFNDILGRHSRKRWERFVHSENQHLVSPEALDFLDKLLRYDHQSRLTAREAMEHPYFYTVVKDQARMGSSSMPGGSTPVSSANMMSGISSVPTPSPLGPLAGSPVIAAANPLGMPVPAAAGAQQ

[4] = Binding affinity to wild type full length human CK2alpha2 (1 to 350 residues) expressed in mammalian expression system assessed as change in melting temperature by SYPRO orange dye based DSF assay
[5] = target: T3, Serine/threonine-protein kinase 17A (Homo sapiens, UniProt Q9UEE5); assay: Binding affinity to human N-terminal His-tagged/ TEV cleavage fused DRAK1 (39 to 369 residues) expressed in Escherichia coli by isothermal titration calorimetry
T3 sequence (Q9UEE5 whole entry): T1 sequence (whole entry)

[6] = target: T3, Serine/threonine-protein kinase 17A; assay: Inhibition of human N-terminal His-tagged/ TEV cleavage fused DRAK1 (39 to 369 residues) expressed in Escherichia coli using KKLNRTLSFAEPG peptide as substrate in presence of [gamma-33P]ATP by radiometric based scintillation proximity assay
[7] = target: T3, Serine/threonine-protein kinase 17A; assay: Inhibition of human N-terminal His-tagged/ TEV cleavage fused DRAK1 (39 to 369 residues) transfected in HEK293T cells using NanoBRET NanoGlo as substrate incubated for 2 hrs by NanoBRET assay; type: cell-based
[8] = target: T1, Serine/threonine-protein kinase 17A (Homo sapiens); assay: Inhibition of human N-terminal His-tagged/ TEV cleavage fused DRAK1 (39 to 369 residues) expressed in Escherichia coli assessed as change in entropy by isothermal titration calorimetry
[9] = target: T1, Serine/threonine-protein kinase 17A (Homo sapiens); assay: Inhibition of human N-terminal His-tagged/ TEV cleavage fused DRAK1 (39 to 369 residues) expressed in Escherichia coli assessed as gibbs free energy change by isothermal titration calorimetry
[10] = test system: HEK-293T; assay: Cytotoxicity against human HEK293T cells at 1 uM incubated for 18 hrs; type: toxicity, cell-based
[11] = test system: HEK-293T; assay: Cytotoxicity against human HEK293T cells assessed as increase in total apoptotic cells at 10 uM incubated for 18 hrs by Annexin V staining based method; type: toxicity, cell-based
[12] = test system: HEK-293T; assay: Cytotoxicity against human HEK293T cells at 1 uM incubated for 36 hrs; type: toxicity, cell-based
[13] = Cytotoxicity against human MRC9 cells at 1 uM incubated for 36 hrs; type: toxicity, cell-based; conditions: mrc9, 36 h
[14] = Cytotoxicity against human HEK293T cells assessed as increase in total apoptotic cells incubated for 36 hrs by Annexin V staining based method; type: toxicity, cell-based, HEK-293T
[15] = test system: U2OS; assay: Cytotoxicity against human U2OS cells assessed as increase in total apoptotic cells incubated for 36 hrs by Annexin V staining based method; type: functional, cell-based
[16] = Cytotoxicity against human MRC9 cells assessed as increase in total apoptotic cells incubated for 36 hrs by Annexin V staining based method; type: toxicity, cell-based
[17] = test system: HEK-293T; assay: Induction of morphological changes in human HEK293T cells assessed as microtubule damage at 1 to 10 uM incubated for 18 hrs by confocal fluorescence microscopic analysis; type: toxicity, cell-based; conditions: dose 1-10 µM
[18] = Induction of morphological changes in human MRC9 cells assessed as microtubule damage at 1 to 10 uM incubated for 18 hrs by confocal fluorescence microscopic analysis; type: toxicity, cell-based; conditions: mrc9, 18 h, dose 1-10 µM
[19] = test system: HEK-293T; assay: Induction of morphological changes in human HEK293T cells assessed as mitochondrial damage at 1 to 10 uM incubated for 18 hrs by confocal fluorescence microscopic analysis; type: toxicity, cell-based; conditions: dose 1-10 µM
[20] = Induction of morphological changes in human MRC9 cells assessed as mitochondrial damage at 1 to 10 uM incubated for 18 hrs by confocal fluorescence microscopic analysis; type: toxicity, cell-based; conditions: mrc9, 18 h, dose 1-10 µM
[21] = test system: D-247MG; assay: Antiproliferative activity against human D-247MG cells assessed as reduction in cell viability after 1 to 7 days by resazurin dye based fluorimetric analysis; type: functional
[22] = test system: LN-229; assay: Antiproliferative activity against human LN-229 cells assessed as reduction in cell viability after 1 to 7 days by resazurin dye based fluorimetric analysis; type: functional
[23] = test system: LN-18; assay: Antiproliferative activity against human LN-18 cells assessed as reduction in cell viability after 1 to 7 days by resazurin dye based fluorimetric analysis; type: functional
[24] = test system: T98G; assay: Antiproliferative activity against human T98G cells assessed as reduction in cell viability measured after 1 to 7 days by resazurin dye based fluorimetric analysis; type: functional
[25] = test system: T98G; assay: Induction of morphological changes in human T98G cells assessed as change in cell shape at 12.5 uM incubated for 5 days by microscopy analysis; type: functional, cell-based; conditions: time 5.0 day
[26] = test system: HEK-293T; assay: Cytotoxicity against human HEK293T cells assessed as increase in total apoptotic cells at 10 uM incubated for 36 hrs by Annexin V staining based method; type: toxicity, cell-based
[27] = test system: U2OS; assay: Cytotoxicity against human U2OS cells assessed as increase in total apoptotic cells at 10 uM incubated for 36 hrs by Annexin V staining based method; type: functional, cell-based
[28] = Cytotoxicity against human MRC9 cells assessed as increase in total apoptotic cells at 10 uM incubated for 36 hrs by Annexin V staining based method; type: toxicity, cell-based; conditions: mrc9, 36 h
[29] = target: T2, Casein kinase II subunit alpha; assay: Inhibition of human CK2alpha1 using RRRDDDSDDD peptide as substrate in presence of [gamma-33P]ATP by radiometric based scintillation proximity assay
Target sequence in this assay (P68400 whole entry, the tested form may be a part): as the sequence (P68400 whole entry, looked up, the tested form may be a part) above

[30] = Inhibition of human CK2alpha2 using RRRDDDSDDD peptide as substrate in presence of [gamma-33P]ATP by radiometric based scintillation proximity assay
[31] = target: T2, Casein kinase II subunit alpha; assay: Inhibition of CK2alpha1(unknown origin) transfected in HEK293T cells using NanoBRET NanoGlo as substrate incubated for 2 hrs by NanoBRET assay; type: cell-based
Target sequence in this assay (P68400 whole entry, the tested form may be a part): as the sequence (P68400 whole entry, looked up, the tested form may be a part) above

[32] = Inhibition of CK2alpha2 (unknown origin) transfected in HEK293T cells using NanoBRET NanoGlo as substrate incubated for 2 hrs by NanoBRET assay; type: cell-based; conditions: Homo sapiens, HEK-293T
[33] = target: T4, Cyclin-G-associated kinase (Homo sapiens, UniProt O14976); assay: Inhibition of GAK (unknown origin) transfected in HEK293T cells using NanoBRET NanoGlo as substrate incubated for 2 hrs by NanoBRET assay; type: cell-based
T4 sequence (O14976 whole entry): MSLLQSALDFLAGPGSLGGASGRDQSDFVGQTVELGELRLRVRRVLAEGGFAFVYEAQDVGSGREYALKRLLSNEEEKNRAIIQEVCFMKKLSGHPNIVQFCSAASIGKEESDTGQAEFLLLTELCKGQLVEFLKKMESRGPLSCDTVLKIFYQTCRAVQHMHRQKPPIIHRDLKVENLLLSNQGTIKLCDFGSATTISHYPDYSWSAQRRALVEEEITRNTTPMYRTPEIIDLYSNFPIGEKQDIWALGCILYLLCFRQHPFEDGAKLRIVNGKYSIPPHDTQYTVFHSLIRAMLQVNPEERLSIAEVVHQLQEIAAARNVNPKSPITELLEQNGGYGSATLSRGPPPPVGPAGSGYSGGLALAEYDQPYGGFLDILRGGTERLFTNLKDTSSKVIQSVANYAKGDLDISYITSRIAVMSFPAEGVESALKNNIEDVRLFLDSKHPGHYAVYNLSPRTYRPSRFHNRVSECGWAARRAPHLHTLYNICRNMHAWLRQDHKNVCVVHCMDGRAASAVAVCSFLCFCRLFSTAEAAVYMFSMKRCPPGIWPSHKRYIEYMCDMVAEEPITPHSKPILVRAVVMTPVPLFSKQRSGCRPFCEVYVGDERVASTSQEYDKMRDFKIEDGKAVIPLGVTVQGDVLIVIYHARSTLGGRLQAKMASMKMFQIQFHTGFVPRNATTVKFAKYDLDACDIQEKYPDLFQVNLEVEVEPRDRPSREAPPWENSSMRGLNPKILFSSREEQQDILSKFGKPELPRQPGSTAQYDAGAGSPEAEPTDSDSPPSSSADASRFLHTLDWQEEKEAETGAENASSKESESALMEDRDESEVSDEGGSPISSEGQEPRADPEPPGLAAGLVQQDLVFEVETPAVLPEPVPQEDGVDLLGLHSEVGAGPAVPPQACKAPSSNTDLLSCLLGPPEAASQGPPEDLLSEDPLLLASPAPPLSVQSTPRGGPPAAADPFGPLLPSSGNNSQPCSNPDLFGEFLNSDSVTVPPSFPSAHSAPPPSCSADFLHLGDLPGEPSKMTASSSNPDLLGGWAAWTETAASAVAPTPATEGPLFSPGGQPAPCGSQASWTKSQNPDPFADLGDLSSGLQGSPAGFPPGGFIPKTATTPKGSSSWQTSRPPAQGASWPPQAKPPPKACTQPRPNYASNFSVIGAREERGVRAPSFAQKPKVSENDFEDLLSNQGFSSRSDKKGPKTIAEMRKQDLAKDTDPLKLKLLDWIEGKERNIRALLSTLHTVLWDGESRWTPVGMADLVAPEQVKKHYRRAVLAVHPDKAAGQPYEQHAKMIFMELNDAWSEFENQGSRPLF

[34] = target: T5, BMP-2-inducible protein kinase (Homo sapiens, UniProt Q9NSY1); assay: Inhibition of BIKE (unknown origin) transfected in HEK293T cells using NanoBRET NanoGlo as substrate incubated for 2 hrs by NanoBRET assay; type: cell-based
Target sequence in this assay (Q9NSY1 whole entry): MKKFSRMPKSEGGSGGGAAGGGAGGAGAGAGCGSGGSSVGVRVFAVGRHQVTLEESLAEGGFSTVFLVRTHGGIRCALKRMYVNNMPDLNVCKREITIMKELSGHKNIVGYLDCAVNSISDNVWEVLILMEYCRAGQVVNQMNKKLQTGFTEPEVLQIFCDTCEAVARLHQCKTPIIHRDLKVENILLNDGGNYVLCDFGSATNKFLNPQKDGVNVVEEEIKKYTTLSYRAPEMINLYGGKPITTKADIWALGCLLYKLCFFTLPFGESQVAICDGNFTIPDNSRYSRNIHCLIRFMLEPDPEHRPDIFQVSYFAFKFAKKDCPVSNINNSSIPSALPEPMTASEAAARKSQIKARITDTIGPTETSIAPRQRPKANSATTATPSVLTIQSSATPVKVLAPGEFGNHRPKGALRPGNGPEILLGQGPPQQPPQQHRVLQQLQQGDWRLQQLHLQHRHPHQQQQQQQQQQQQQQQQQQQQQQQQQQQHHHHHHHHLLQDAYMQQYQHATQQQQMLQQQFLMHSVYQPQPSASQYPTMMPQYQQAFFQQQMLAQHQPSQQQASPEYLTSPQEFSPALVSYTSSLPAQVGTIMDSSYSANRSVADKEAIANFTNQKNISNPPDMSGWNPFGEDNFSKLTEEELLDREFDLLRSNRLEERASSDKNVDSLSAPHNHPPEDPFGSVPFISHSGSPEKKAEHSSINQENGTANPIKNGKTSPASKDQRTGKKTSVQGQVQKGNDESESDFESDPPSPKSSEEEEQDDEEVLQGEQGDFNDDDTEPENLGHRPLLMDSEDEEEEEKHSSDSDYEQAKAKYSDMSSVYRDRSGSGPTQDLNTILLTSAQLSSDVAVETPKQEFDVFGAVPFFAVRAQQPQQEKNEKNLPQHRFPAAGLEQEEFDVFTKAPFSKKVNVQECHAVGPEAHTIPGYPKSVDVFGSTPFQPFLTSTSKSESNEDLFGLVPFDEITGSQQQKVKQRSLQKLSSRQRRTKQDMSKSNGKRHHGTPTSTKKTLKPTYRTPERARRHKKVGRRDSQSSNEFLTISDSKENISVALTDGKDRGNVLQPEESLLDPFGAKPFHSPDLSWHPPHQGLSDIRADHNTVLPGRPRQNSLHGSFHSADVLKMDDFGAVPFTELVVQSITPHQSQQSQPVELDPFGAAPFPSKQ

[35] = target: T6, Serine/threonine-protein kinase 17B (Homo sapiens, UniProt O94768); assay: Inhibition of DRAK2 (unknown origin) transfected in HEK293T cells using NanoBRET NanoGlo as substrate incubated for 2 hrs by NanoBRET assay; type: cell-based
T6 sequence (O94768 whole entry): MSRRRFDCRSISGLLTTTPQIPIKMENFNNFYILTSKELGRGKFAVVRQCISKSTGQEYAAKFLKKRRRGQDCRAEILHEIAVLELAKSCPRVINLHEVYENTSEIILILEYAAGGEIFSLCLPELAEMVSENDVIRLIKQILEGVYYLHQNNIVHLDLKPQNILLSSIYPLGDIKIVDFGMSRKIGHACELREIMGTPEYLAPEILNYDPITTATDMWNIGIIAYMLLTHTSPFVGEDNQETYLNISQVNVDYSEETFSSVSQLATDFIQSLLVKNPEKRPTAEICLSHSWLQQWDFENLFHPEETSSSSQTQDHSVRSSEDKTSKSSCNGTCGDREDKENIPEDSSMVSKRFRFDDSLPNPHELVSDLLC

[36] = target: T5, BMP-2-inducible protein kinase; assay: Binding affinity to BIKE (unknown origin) assessed as change in melting temperature at 10 uM by SYPRO orange dye based DSF assay
Target sequence in this assay (Q9NSY1 whole entry, looked up): as the sequence (Q9NSY1 whole entry) above

[37] = target: AP2-associated protein kinase 1 (Homo sapiens) (UniProt Q2M2I8); assay: Binding affinity to AAK1 (unknown origin) assessed as change in melting temperature at 10 uM by SYPRO orange dye based DSF assay
AP2-associated protein kinase 1 (Homo sapiens), sequence (Q2M2I8 whole entry, looked up): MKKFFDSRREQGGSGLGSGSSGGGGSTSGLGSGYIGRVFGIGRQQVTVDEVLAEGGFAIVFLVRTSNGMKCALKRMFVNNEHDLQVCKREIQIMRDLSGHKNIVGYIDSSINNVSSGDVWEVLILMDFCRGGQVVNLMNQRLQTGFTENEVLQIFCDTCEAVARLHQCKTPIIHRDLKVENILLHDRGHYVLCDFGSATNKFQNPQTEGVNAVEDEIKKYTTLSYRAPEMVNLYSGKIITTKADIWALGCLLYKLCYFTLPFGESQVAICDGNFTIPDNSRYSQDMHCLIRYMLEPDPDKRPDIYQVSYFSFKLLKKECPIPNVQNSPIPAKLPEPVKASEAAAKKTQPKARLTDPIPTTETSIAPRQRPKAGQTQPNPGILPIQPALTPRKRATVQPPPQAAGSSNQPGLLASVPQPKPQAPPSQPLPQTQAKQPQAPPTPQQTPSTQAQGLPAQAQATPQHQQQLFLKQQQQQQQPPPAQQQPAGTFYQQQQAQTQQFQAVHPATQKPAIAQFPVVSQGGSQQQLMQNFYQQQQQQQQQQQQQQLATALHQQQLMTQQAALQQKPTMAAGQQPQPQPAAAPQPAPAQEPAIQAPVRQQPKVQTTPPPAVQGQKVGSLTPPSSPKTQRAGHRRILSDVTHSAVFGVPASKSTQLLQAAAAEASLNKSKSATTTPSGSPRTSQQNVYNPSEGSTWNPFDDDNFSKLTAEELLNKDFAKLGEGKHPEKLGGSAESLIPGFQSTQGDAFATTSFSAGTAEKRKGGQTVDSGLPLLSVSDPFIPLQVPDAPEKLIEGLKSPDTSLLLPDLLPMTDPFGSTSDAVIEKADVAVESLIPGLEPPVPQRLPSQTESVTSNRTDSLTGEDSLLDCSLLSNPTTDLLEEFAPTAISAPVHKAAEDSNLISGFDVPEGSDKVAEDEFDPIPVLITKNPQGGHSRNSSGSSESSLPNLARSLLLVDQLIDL

| Compound | deltaH [1] [kcal/mol] | ΔTm [2] [°C] | ΔTm [3] [°C] | ΔTm [4] [°C] | Kd [5] [µM] | IC50 [6] [µM] | IC50 [7] [µM] | deltaS [8] [cal/mol.K] | deltaG [9] [kcal/mol] | Activity [10] | Activity [11] | Activity [12] | Activity [13] | EC50 at 36 h [14] [µM] | EC50 at 36 h [16] [µM] | Activity [17] | Activity [18] | Activity [19] | Activity [20] | EC50 [21] [µM] | also measured |
| --- | --- | --- | --- | --- | --- | --- | --- | --- | --- | --- | --- | --- | --- | --- | --- | --- | --- | --- | --- | --- | --- |
| C[C@H](NC(=O)c1ccc2cc1OCCOCCNc1ccn3ncc-2c3n1)c1ccncc1 | -6.78 | 12.3 | 1.2 | 0.1 | 0.009 | 0.015 | 0.07 | 11.6 | -10.1 | Non-Toxic | Toxic | Non-Toxic | Non-Toxic | > 10 | > 10 | Non-Toxic | Non-Toxic | Non-Toxic | Non-Toxic | 1.25 | EC50 [15]: > 10 µM; EC50 [22]: 2.2 µM; EC50 [23]: 1.97 µM; EC50 [24]: 2.34 µM; Activity [25]: Active; Activity [26]: Toxic; Activity [27]: Active; Activity [28]: Toxic |
| CC(C)(C)NC(=O)c1ccc2cc1OCCOCCNc1ccn3ncc-2c3n1 | -7.39 | 11.3 | 0.8 | 2.3 | 0.021 | 0.049 | 0.182 | 11.1 | -10.6 | Non-Toxic | Toxic | Non-Toxic | Non-Toxic | > 10 | > 10 | Non-Toxic | Non-Toxic | Non-Toxic | Non-Toxic | 2.75 | IC50 [29]: 0.95 µM; IC50 [30]: 0.38 µM; IC50 [31]: 34 µM; IC50 [32]: 39 µM; IC50 [33]: 24 µM; IC50 [34]: 8 µM; IC50 [35]: 8.4 µM; ΔTm [36]: > 5 °C; ΔTm [37]: > 5 °C; EC50 [22]: 9.2 µM; EC50 [23]: 11.2 µM; EC50 [24]: 10.4 µM; Activity [25]: Active; Activity [26]: Toxic; Activity [27]: Active; Activity [28]: Toxic |
